In the NIST ThermoML archive (doi:10.1021/je401118k):
Numbers after ± are expanded uncertainties.

Experiment: mn = molality of the nth substance listed, in mol/kg
Conditions: for electrical conductivity: 101 kPa, Liquid, Alternating current cell with electrodes; for surface tension liquid-gas: Ring tensiometer

C[N+]1(CCC[Si](O[Si](C)(C)C)(O[Si](C)(C)C)O[Si](C)(C)C)CCCC1.O=[N+]([O-])[O-] + O
Conditions | electrical conductivity, 288.15 K [S/m] | electrical conductivity, 293.15 K [S/m] | electrical conductivity, 298.15 K [S/m] | electrical conductivity, 303.15 K [S/m] | electrical conductivity, 308.15 K [S/m] | surface tension liquid-gas, 298.15 K [mN/m]
m1 = 1e-06 | – | – | – | – | – | 71.3 ± 1.2
m1 = 1e-05 | – | – | – | – | – | 67.8 ± 1.1
m1 = 0.0001 | – | – | – | – | – | 54.3 ± 0.9
m1 = 0.0006 | – | – | – | – | – | 42 ± 0.7
m1 = 0.0008 | 0.00614 ± 1e-05 | 0.00666 ± 1e-05 | 0.00734 ± 1e-05 | 0.00801 ± 1e-05 | 0.00864 ± 1e-05 | –
m1 = 0.0009 | 0.00682 ± 1e-05 | 0.00744 ± 1e-05 | 0.00818 ± 1e-05 | 0.00894 ± 1e-05 | 0.00984 ± 1e-05 | –
m1 = 0.001 | 0.00733 ± 1e-05 | 0.0081 ± 0.0001 | 0.00888 ± 1e-05 | 0.00967 ± 1e-05 | 0.01058 ± 1e-05 | 37.4 ± 0.7
m1 = 0.002 | 0.0143 ± 0.0001 | 0.01556 ± 1e-05 | 0.01717 ± 1e-05 | 0.01881 ± 1e-05 | 0.0212 ± 0.0001 | 33.3 ± 0.6
m1 = 0.003 | 0.0209 ± 0.0001 | 0.0231 ± 0.0001 | 0.0255 ± 0.0001 | 0.0279 ± 0.0001 | 0.0302 ± 0.0001 | 30.3 ± 0.6
m1 = 0.004 | 0.0264 ± 0.0001 | 0.0291 ± 0.0001 | 0.0321 ± 0.0001 | 0.0354 ± 0.0001 | 0.0388 ± 0.0001 | 27.6 ± 0.5
m1 = 0.005 | 0.0282 ± 0.0001 | 0.031 ± 0.0001 | 0.0348 ± 0.0001 | 0.0392 ± 0.0001 | 0.0438 ± 0.0001 | 26.1 ± 0.5
m1 = 0.006 | 0.03 ± 0.0001 | 0.0329 ± 0.0001 | 0.0367 ± 0.0001 | 0.0414 ± 0.0001 | 0.0466 ± 0.0001 | 25.1 ± 0.5
m1 = 0.007 | 0.0312 ± 0.0001 | 0.0343 ± 0.0001 | 0.0382 ± 0.0001 | 0.043 ± 0.0001 | 0.0486 ± 0.0001 | 24 ± 0.5
m1 = 0.008 | 0.0324 ± 0.0001 | 0.0354 ± 0.0001 | 0.0396 ± 0.0001 | 0.0447 ± 0.0001 | 0.0502 ± 0.0001 | 23.3 ± 0.5
m1 = 0.009 | 0.0335 ± 0.0001 | 0.0369 ± 0.0001 | 0.041 ± 0.0001 | 0.0464 ± 0.0001 | 0.0525 ± 0.0001 | 23 ± 0.4
m1 = 0.01 | – | – | – | – | – | 22.4 ± 0.4
m1 = 0.015 | – | – | – | – | – | 21.4 ± 0.4
m1 = 0.02 | – | – | – | – | – | 21.2 ± 0.4
m1 = 0.025 | – | – | – | – | – | 21.3 ± 0.4
m1 = 0.03 | – | – | – | – | – | 21.2 ± 0.4
